We go through 3 compounds from US20100119454A1, “Use of the conserved Drosophila NPFR1 system for uncovering interacting genes and pathways important in nociception and stress response” (priority 2008, published 2010).

Experiment [1] concerns D. melanogaster post-feeding larvae. As to the kind of experiment: Larval food aversion (migration) assay on soft agar media. It counts as in vivo, Drosophila melanogaster. Here is the method:
Behavioral Assays. The food aversion assay was performed in plastic petri dishes (60 mm in diameter). Each apple juice-agar plate contains a mix (ca. 7 ml) of 1 g of Drosophila agar powder (USB, Swampscott, Mass.) and 6 ml apple-juice solution (0.1 g carbohydrates per ml, equivalent to 20% of frozen concentrate). Other soft agar media were made by mixing 1 g agar powder with 6.5 ml of distilled water or solution containing 10% fructose, 10% lactose, 10% sorbitol or 50 μM capsaicin, respectively. The amount of agar powder may require adjustment depending on agar quality. Twenty-five new post-feeding larvae (96 h AEL) were transferred onto a plate. The larvae were allowed to move freely on the medium, and those that crawled onto the plastic surface became less mobile and eventually formed pupae there. The percent of pupae on agar media was scored after 24 hours. All experiments were performed at room temperature except for the temperature shift assay. In these experiments, larvae and food media were pre-incubated at 30° C. for 60 min before the assay. The larvae were subsequently transferred onto the medium and kept at 30° C. All assays were performed in the dark. At least three separate trials were performed per assay.
(§1) Behavioral assays. The migration assay on soft agar media was performed as described previously (Xu et al., 2008), which is hereby incorporated by reference herein in its entirety. Twenty-five postfeeding larvae (96 h AEL) in one plate were allowed to move freely on the medium, and those that crawled onto the plastic surface became less mobile, and eventually formed pupae there. The percentage of pupae on agar media was scored after 24 hours. The clumping assay was also described in the following, which is hereby incorporated by reference herein in its entirety (Wu et al., 2003). Briefly, 45 mm petri dishes containing solid fructose agar (3% agar in a 10% fructose solution) were coated with a thin layer of yeast paste (0.5 g yeast powder in 10% fructose solution). Thirty larvae per plate were allowed to browse for 30 min, and those in clumps were scored immediately. The social burrowing assay was performed on solid agar media containing apple juice or 10% fructose, as described (Wu et al., 2003). All assays, unless stated otherwise, were performed at room temperature in the dark. At least three separate trials were performed per assay.

Experiment [2] shares this test system. The experiment is described as follows: Larval aggregation / cooperative burrowing on solid agar media. Type of experiment: in vivo, Drosophila melanogaster. To be noted: solid 10% fructose agar, post-feeding larvae 96 hr AEL. Here is the method: as §1
Experiment [3] relates to pain-expressing sensory neurons. The experiment is described as follows: Calcium imaging (yellow cameleon 2.1, SOARS analysis) of larval sensory neurons. Type of experiment: cell-based, Drosophila melanogaster. To be noted: lactose-fructose alternate. Here is the method:
Imaging. The live images of second instar larvae (ca. 48 h AEL) expressing DsRed driven by pain-gal4 were obtained using a Leica epifluorescence microscope. The immunofluorescence images were taken by a Zeiss LSM 510 Meta confocal microscope and processed by Zeiss AIM Image Examiner. […] Larvae were dissected in a modified HL6 solution containing lactose (HL6-Lac, 23.7 mM NaCl, 15 mM MgCl2, 24.8 mM KCl, 0.5 mM CaCl2, 10 mM NaHCO3, 5 mM HEPES, 240 mM lactose)^38. An incision was made along the dorsal midline, and the gut and the fat bodies were removed. The tissue was placed ventral side up in HL6 solution on a silicon-coated coverslip (Sylgard 184, DOW Corning Corp., Midland, Mich.) in a Dvorak-Stotler perfusion chamber (Lucas Highland, Chantilly, Va.). A minute amount of cyanoacrylate glue (Nexaband S/C, Abott Laboratories, North Chicago, Ill.) was applied to the edge of the cuticle using a glass micropipette to immobilize the tissue. The imaging was performed on a Zeiss LSM 510 Meta confocal microscope (Carl Zeiss Microimaging, Thornwood, N.Y.). YC2.1 was excited at 458 nm with an argon laser. Emission fluorescence was filtered by a BP 475-525 filter (cyan) and an LP 530 filter (yellow). 256×256 pixel images for ratiometric analysis were collected at 1 frame s^−1. The tissue was perfused at a rate of 8.3 ul s^−1 with HL6-Lac, periodically alternating with a modified HL6 solution containing fructose (HL6-Fru, with 240 mM fructose substituting 240 mM lactose in HL6-Lac), switching at 120-second intervals for a total of 800 seconds. The images were subsequently analyzed with the SOARS method (Statistical Optimization for the Analysis of Ratiometric Signals, Version 1.1) as described in the following references, which are hereby incorporated by reference herein in their entireties (Fan, X., et al., 2007; Broder, J., et al., 2007), using Matlab (MathWorks, Natick, Mass.; also see http://www.engr.uga.edu/research/groups/atslab/Software.html).
In brief, SOARS is a multivariate statistical optimization procedure performed on both CFP and YFP channels of the FRET imaging data. The analysis results in a set of eigenimages and associated time courses that represent the part of the imaged signal displaying statistically significant spatial correlation and temporal anti-correlation (e.g., the aspects of the signal that are demonstrable due to FRET). These eigenimages represent the spatial distribution of anti-correlated FRET changes in response to sugar stimulation. Because the stimulus was periodic, the time courses were tested for the presence of stimulus-locked activity. To quantify the significance of the periodic part of the FRET response, p-values for a periodic (sinusoidal) response at the stimulus frequency were calculated using multitaper harmonic analysis (a common method for the detection of sinusoids in noisy data) as described in the following references, which are hereby incorporated herein by reference in their entirety. (Thomson 1982; Mitra et al., 1999, Sornborger et al., 2003; Mitra et al., 2008).
In vivo calcium imaging. […] To quantify the significance of anti-correlated FRET response to fructose stimulation, p-values were calculated for a periodic (sinusoidal) response at the stimulus frequency using multitaper harmonic analysis, a common method for the detection of sinusoids in noisy data (Thomson, 1982), which is hereby incorporated by reference herein in its entirety.

Experiment [4] has as its system Drosophila adult flies. The experiment is described as follows: Two-choice preference test of adult flies (BITC). To be noted: 0.4 mM BITC, 2-day old control flies. It counts as in vivo, Drosophila melanogaster. As to the method:
The two-choice preference test was based on a published procedure with some modifications (Al-Anzi et al., 2006), which is hereby incorporated by reference herein in its entirety. 2-day-old males withheld from food for 24 hr were presented with a 48-well plate containing two-colored food media in the alternating well rows. They contain 1% agar/10% fructose with 0.4 mM benzyl-isothiocyanate (BITC) in 75% ethanol or ethanol only. In each assay, 90-100 flies per line were tested in the dark. A preference index was defined as the fraction of […] choosing the BITC medium, minus the fraction of […] choosing the BITC-free medium. […] At least three trials were done for each line.

The subject of experiment [5] is rats. To be noted: injected into the forebrain of rats, paw-withdraw test; cited from earlier work.

`O=C(CO)[C@@H](O)[C@H](O)[C@H](O)CO` [fructose]: the “response of wild type larvae to sugar media” value in experiment [1] (10% sugar media, wild type larvae (FIG. 2B)) was “aversive”. In addition, in experiment [1] (w1118 new post-feeding larvae (ca. 96 h AEL), soft agar paste, apple juice or 10% fructose), the “larvae that moved away from the medium / pupated outside of the medium” value is “about 80%”. The “larval grouping behavior on solid medium” value in experiment [2] is “aggregation and cooperative burrowing”. The Anti-correlated signal entry in experiment [3] (pain^gal4/+, UAS-YC 2.1/+, 74 h AEL, ventral sensory neurons in T2 and T3 segments) is “No”; in experiment [3] (pain^gal4/+, UAS-YC 2.1/+, 96 h AEL, chordotonal neurons in A1 segment), “No”; in experiment [3] (pain^gal4/+, UAS-YC 2.1/+, 96 h AEL, ventral sensory neurons in T2 and T3 segments) it was “Yes”; in experiment [3] (pain^gal4/pain^3, UAS-YC 2.1/+ (pain mutant), 96 h AEL, ventral sensory neurons in T2 and T3) it was “No”.
Consider `S=C=NCc1ccccc1` [BITC, benzyl-isothiocyanate], for which the “food choice of adult flies” value in experiment [4] was “mostly avoided”.
As for “NPY: abundant signaling peptide in the brain of mammals”, in experiment [5], the nociceptive threshold result is reported as “significantly elevated”.
